From article PMC7026418, “The kinase polypharmacology landscape of clinical PARP inhibitors” (Scientific Reports, 2020)
Read-outs that look alike come from different tables or passages of the source.

Legend:
Test in all cases: biochemical
Set-up in all cases: DiscoveRx KINOMEscan active site-directed competition binding; percent of control kinase bound to immobilised ligand
CSK = CSK (Homo sapiens, UniProt P41240)
ERK2 = molecular target: T1, ERK2 (Homo sapiens, UniProt P28482)
T1 construct: gene MAPK1

FLT3(ITD,F691L) = molecular target: T2, FLT3(ITD,F691L) (Homo sapiens, UniProt P36888, F691L/ITD)
T2 sequence (P36888 564-993 F691L): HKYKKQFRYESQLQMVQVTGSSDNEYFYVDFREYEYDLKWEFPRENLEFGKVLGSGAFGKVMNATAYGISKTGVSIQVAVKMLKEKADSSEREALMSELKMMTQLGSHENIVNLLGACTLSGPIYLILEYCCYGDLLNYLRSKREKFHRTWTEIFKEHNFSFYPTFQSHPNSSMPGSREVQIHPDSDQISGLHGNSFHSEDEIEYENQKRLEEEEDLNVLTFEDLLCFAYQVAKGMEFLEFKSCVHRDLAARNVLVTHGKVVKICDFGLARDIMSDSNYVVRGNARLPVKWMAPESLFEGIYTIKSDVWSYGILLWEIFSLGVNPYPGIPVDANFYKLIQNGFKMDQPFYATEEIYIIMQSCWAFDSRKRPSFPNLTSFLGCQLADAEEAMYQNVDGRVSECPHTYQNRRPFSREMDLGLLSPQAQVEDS

LATS2 = molecular target: T3, LATS2 (Homo sapiens, UniProt Q9NRM7)
T3 sequence (Q9NRM7 1-1088): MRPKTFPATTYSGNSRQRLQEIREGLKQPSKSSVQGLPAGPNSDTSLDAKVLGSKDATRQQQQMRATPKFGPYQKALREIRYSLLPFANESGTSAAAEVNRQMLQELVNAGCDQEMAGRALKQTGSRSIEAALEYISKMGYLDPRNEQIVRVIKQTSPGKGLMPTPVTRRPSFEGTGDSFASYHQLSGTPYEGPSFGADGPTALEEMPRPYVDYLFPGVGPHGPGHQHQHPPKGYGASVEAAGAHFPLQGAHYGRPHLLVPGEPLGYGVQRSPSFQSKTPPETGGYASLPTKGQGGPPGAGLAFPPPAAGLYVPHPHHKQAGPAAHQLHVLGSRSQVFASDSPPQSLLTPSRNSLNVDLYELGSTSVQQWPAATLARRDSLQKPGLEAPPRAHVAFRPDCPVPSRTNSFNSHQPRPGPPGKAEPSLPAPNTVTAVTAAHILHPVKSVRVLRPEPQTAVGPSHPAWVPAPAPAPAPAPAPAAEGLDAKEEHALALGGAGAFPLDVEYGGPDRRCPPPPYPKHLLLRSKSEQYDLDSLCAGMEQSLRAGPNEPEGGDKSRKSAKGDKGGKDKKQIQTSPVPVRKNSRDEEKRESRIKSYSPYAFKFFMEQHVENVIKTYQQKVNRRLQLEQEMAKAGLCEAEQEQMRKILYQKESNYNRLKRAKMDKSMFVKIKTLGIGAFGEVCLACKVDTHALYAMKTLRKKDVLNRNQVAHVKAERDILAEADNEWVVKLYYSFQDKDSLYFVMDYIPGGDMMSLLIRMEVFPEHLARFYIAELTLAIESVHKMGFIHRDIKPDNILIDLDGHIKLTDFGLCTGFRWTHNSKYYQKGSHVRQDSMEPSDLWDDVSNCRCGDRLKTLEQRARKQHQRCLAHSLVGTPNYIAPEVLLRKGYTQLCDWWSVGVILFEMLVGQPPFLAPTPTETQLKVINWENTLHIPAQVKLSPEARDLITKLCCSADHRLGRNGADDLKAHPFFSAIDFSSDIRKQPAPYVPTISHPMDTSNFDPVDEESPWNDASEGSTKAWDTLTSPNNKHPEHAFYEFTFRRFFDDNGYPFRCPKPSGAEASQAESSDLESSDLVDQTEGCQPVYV

MAST1 = MAST1 (Homo sapiens, UniProt Q9Y2H9)
PIK3CG = PIK3CG (Homo sapiens, UniProt P48736)
[1] = molecular target: T4, RSK3(Kin.Dom.1-N-terminal) (Homo sapiens, UniProt Q15349)
T4 construct: gene RPS6KA2; Kin.Dom.1-N-terminal

TGFBR1 = molecular target: T5, TGFBR1 (Homo sapiens, UniProt P36897)
T5 sequence (P36897 1-503): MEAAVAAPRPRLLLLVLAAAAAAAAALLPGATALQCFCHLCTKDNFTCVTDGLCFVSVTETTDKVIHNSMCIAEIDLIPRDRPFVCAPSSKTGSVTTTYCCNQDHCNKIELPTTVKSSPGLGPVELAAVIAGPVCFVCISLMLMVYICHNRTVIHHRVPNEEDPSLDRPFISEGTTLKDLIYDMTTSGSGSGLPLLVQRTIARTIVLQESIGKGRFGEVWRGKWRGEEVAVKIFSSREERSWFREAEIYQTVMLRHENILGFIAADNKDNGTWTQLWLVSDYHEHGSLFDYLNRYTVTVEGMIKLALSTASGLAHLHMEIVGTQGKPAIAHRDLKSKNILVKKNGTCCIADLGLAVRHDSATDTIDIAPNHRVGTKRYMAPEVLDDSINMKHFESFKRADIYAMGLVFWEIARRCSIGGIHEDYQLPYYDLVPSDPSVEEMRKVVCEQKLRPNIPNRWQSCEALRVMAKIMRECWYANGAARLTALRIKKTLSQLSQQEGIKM

[2] = read-out: Niraparib (MK-4827) / %Ctrl @ 10000nM
[3] = read-out: Olaparib / %Ctrl @ 10000nM
[4] = read-out: Rucaparib / %Ctrl @ 10000nM, binding competition, % of control
[5] = read-out: Talazoparib (BMN 673) / %Ctrl @ 10000nM

Sequence of CSK (P41240 whole entry): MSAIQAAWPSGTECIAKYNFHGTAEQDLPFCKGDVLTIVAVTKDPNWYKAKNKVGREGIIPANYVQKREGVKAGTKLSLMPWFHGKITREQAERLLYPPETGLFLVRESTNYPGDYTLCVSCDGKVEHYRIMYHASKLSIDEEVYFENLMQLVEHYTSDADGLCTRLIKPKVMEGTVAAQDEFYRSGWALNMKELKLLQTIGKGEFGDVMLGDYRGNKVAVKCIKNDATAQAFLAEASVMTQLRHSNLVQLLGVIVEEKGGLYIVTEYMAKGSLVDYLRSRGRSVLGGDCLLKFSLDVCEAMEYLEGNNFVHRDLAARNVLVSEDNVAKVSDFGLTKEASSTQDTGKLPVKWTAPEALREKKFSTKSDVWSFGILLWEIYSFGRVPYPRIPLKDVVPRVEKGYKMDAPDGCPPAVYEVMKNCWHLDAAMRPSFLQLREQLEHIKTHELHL
Sequence of MAST1 (Q9Y2H9 whole entry): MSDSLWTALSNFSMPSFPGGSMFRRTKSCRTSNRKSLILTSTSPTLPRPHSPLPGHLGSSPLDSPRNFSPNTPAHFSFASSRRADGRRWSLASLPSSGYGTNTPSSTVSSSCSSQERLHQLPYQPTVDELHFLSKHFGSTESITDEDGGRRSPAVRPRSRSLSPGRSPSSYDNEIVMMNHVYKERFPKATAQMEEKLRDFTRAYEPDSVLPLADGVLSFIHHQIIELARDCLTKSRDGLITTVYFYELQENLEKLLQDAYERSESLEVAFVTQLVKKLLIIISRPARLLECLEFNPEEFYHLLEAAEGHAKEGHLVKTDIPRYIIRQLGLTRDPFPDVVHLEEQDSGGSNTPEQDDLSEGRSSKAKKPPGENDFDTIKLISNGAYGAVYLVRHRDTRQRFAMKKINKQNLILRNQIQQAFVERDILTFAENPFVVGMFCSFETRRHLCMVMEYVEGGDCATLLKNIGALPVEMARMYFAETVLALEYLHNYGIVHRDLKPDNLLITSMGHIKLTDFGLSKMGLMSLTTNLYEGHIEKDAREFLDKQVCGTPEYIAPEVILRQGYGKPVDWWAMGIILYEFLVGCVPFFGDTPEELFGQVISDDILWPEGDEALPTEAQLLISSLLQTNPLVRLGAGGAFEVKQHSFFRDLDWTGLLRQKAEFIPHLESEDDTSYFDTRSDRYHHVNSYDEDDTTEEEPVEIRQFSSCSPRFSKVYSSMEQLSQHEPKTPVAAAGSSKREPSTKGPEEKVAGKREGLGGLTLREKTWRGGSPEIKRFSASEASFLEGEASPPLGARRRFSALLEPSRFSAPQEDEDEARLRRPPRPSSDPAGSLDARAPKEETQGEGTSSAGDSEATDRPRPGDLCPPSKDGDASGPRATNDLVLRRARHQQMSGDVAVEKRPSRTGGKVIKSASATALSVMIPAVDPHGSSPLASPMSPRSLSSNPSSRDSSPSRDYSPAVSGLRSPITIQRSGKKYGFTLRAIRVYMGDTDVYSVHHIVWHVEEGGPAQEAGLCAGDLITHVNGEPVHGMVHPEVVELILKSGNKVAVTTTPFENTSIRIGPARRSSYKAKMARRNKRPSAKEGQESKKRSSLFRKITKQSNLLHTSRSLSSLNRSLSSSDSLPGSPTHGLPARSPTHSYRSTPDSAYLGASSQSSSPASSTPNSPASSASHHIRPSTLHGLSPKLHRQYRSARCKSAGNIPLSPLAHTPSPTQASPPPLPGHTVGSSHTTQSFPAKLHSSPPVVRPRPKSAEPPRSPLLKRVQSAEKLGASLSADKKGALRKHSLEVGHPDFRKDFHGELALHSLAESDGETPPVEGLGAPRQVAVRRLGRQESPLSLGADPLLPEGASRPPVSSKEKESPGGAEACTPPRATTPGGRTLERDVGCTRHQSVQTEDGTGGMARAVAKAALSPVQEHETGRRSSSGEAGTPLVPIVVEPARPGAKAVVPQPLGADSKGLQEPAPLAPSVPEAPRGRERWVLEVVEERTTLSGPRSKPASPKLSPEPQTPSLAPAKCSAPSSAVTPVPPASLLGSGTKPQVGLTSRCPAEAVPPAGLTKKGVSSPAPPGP
T1 sequence (P28482 whole entry): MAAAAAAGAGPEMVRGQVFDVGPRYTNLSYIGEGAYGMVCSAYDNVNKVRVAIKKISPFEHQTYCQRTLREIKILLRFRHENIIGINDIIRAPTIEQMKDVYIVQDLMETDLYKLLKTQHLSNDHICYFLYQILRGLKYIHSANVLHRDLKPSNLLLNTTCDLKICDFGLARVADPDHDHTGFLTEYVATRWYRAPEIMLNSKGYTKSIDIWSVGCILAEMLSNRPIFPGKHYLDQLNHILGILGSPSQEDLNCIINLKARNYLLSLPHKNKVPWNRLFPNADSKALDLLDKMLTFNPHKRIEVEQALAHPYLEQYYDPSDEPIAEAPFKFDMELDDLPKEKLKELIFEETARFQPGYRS
T4 sequence (Q15349 whole entry): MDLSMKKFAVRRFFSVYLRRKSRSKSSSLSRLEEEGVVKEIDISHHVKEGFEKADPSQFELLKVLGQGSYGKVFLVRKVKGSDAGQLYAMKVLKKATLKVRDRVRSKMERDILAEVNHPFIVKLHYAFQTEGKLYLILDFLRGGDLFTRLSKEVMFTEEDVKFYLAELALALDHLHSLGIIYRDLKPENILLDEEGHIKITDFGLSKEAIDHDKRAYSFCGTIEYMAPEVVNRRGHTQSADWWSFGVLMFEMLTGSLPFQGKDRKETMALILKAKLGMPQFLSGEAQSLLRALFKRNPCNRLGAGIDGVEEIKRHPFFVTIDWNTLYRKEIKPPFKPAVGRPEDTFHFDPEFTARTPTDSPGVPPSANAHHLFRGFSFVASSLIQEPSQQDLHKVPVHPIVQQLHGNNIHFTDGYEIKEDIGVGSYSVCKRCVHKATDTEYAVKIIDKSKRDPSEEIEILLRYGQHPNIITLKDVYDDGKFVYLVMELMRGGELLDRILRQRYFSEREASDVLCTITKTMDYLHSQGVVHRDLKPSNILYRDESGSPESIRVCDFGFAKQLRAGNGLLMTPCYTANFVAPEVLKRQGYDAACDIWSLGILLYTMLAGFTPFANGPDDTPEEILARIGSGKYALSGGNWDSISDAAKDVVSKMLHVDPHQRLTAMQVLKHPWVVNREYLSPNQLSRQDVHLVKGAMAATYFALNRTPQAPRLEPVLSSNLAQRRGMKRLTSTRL
Sequence of PIK3CG (P48736 whole entry): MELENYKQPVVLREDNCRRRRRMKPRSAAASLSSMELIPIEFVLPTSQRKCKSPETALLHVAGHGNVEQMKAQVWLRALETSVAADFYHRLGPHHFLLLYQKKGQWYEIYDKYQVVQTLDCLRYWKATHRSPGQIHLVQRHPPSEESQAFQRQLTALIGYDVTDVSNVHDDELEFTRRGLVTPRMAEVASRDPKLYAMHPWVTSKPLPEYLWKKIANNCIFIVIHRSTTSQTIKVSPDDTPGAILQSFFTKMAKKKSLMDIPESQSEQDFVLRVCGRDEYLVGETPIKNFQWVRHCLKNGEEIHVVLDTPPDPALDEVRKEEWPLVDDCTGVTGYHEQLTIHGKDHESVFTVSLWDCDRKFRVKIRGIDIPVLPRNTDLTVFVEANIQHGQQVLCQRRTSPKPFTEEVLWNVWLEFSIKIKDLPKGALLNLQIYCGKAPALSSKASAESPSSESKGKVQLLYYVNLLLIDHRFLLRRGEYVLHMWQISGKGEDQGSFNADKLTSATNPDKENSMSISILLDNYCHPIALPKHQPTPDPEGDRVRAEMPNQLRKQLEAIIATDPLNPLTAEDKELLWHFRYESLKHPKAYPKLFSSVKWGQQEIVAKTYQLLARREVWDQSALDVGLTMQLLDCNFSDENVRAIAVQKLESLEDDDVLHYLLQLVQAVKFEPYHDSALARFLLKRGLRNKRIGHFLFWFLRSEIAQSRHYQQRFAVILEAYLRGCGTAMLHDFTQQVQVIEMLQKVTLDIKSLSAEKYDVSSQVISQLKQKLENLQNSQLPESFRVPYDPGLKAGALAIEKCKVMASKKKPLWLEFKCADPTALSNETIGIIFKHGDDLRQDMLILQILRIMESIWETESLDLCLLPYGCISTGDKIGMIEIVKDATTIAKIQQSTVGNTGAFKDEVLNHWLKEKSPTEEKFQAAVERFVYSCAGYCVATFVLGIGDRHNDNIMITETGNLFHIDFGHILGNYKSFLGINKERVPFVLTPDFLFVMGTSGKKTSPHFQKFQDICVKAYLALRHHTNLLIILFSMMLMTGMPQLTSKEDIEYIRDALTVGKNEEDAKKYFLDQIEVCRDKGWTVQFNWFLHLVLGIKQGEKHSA

`NC(=O)c1cccc2cn(-c3ccc([C@@H]4CCCNC4)cc3)nc12` [Niraparib] showed a percent of control binding at 10 µM (CSK; [2]) of 90%, a percent of control binding at 10 µM (ERK2; [2]) of 93% and a percent of control binding at 10 µM (FLT3(ITD,F691L); [2]) of 42%. For the same compound, the percent of control binding at 10 µM (LATS2; [2]) was 4.2%, the percent of control binding at 10 µM (MAST1; [2]) was 91% and the percent of control binding at 10 µM (PIK3CG; [2]) was 100%. It also gave a percent of control binding at 10 µM [1, 2] of 74% and a percent of control binding at 10 µM (TGFBR1; [2]) of 98%.

Work on `O=C(c1cc(Cc2n[nH]c(=O)c3ccccc23)ccc1F)N1CCN(C(=O)C2CC2)CC1` [Olaparib] yielded a percent of control binding at 10 µM (CSK; [3]) of 99%, a percent of control binding at 10 µM (ERK2; [3]) of 93% and a percent of control binding at 10 µM (FLT3(ITD,F691L); [3]) of 84%. It also gave a percent of control binding at 10 µM (LATS2; [3]) of 77%, a percent of control binding at 10 µM (MAST1; [3]) of 86% and a percent of control binding at 10 µM (PIK3CG; [3]) of 89%. The percent of control binding at 10 µM [1, 3] was 97% and the percent of control binding at 10 µM (TGFBR1; [3]) was 93%.

`CNCc1ccc(-c2[nH]c3cc(F)cc4c3c2CCNC4=O)cc1` [Rucaparib] was tested, and the percent of control binding at 10 µM (CSK; [4]) was 100%, the percent of control binding at 10 µM (ERK2; [4]) was 94% and the “Rucaparib / %Ctrl @ 10000nM” value (FLT3(ITD,F691L); binding competition, % of control) was 26%. It also gave a percent of control binding at 10 µM (LATS2; [4]) of 48%, a percent of control binding at 10 µM (MAST1; [4]) of 79% and a percent of control binding at 10 µM (PIK3CG; [4]) of 88%. For the same compound, the percent of control binding at 10 µM [1, 4] was 99% and the percent of control binding at 10 µM (TGFBR1; [4]) was 98%.

In the case of `Cn1ncnc1[C@H]1c2n[nH]c(=O)c3cc(F)cc(c23)N[C@@H]1c1ccc(F)cc1` [Talazoparib], the percent of control binding at 10 µM (CSK; [5]) is reported as 87%, the percent of control binding at 10 µM (ERK2; [5]) is reported as 100% and the percent of control binding at 10 µM (FLT3(ITD,F691L); [5]) is reported as 100%. The percent of control binding at 10 µM (LATS2; [5]) was 82%, the percent of control binding at 10 µM (MAST1; [5]) was 100% and the percent of control binding at 10 µM (PIK3CG; [5]) was 62%. For the same compound, the percent of control binding at 10 µM [1, 5] was 84% and the percent of control binding at 10 µM (TGFBR1; [5]) was 100%.
